Measured values from patent publication US6015560A, “Antibody recognizing endothelial cell ligand for leukocyte CR3” (priority 1995, dated 2000).

Tested on: leukocytes in CSF
Experiment: Rat meningitis model (LOS): CSF leukocytosis
Assay type: in vivo
Details: 4 hours
Procedure: The experiments were performed according to established protocols (Wispelway et al., 1988, J. Clin. Invest., 82: 1339-1346). Purified Haemophilus influenzae type b strain DL42 lipooligosaccharide (LOS) was prepared for inoculation by sonication for 30 minutes, dilution to the desired concentration (20 ng/50 μl) in normal saline or PBS, and sonication for an additional 15 to 30 minutes just prior to use.
Briefly, anesthetized female Wistar rats were placed under a micromanipulator and inoculated intracisternally with a 25 gauge needle. After removal of 50 μl of CSF (without visible blood contamination), rats were inoculated intracisternally with 50 μl (20 ng) of LOS using a 1 ml syringe with a 25 gauge needle. Ten to fifteen minutes after inoculation with LOS, the rats were treated by intravenous administration of the test substance: a solution of an FHA peptide in PBS, a solution of a control peptide in PBS, or an equal volume of PBS alone.
Three hours after LOS inoculation, 5 μCi of ^125 I-radiolabelled albumin in 50 μl normal saline was administered intravenously. One hour later, CSF was collected via intracisternal puncture and blood samples were collected via intracardiac puncture. CSF leukocytosis was determined by manually counting white blood cells using a hemacytometer, and blood-brain barrier permeability was determined as the percent of radioactivity in whole blood that was present in the CSF. Blood samples were obtained immediately prior to inoculation, immediately prior to treatment, and at 4 hours post-inoculation for determination of peripheral white blood cell concentrations.

| Substance | Leukocytosis (CSF leukocyte concentration) (600 nmol i.v.) | Leukocytosis (CSF leukocyte concentration) (100 nmol i.v.) |
| --- | --- | --- |
| Ac-VEEDTKG-NH2 [scrambled ac/am FHA II, VEEDTKG, reference compound] | 14,287 ± 10,199 cells/ml |  |
| IDVPQHGGAMRDLGIAQGKD [scrambled FHA Ca, reference compound] |  | 20,700 ± 7,400 cells/ml |
